≈ marks a conversion by molar mass, not a printed value. Read-outs that look alike come from different tables or passages of the source. Marks after values point to notes of the source that are not given here.
Legend:
human red blood cells = experiment: Hemolytic assay; format: cell-based
Excerpt: We evaluated the hemolytic activity of the O-acyl isopeptide prodrugs and the corresponding teixobactin analogues with human red blood cells (Fig. S14–S21 ^†). We used Triton X-100 and melittin as positive controls and vancomycin and water (vehicle) as negative controls in the hemolysis assays.[9,25,26] […] In contrast, 0.002% polysorbate 80 had no effect on the hemolytic activity of Lys10–teixobactin and Leu10–teixobactin and little effect on the corresponding O-acyl isopeptide prodrug analogues. When we performed hemolysis assays with teixobactin, we observed no hemolysis up to 100 μg mL^−1 without polysorbate 80 and modest hemolysis (4%) at 100 μg mL^−1 with 0.002% polysorbate 80. We observed no hemolysis with vancomycin at concentrations up to 100 μg mL^−1, and we observed 26–30% hemolysis with 1.25 μg mL^−1 melittin with and without 0.002% polysorbate 80.

[1] = system: four Gram-positive bacteria; details: Table 2
Excerpt: (§1) We used methicillin-susceptible and methicillin-resistant S. aureus as representative pathogens and B. subtilis and S. epidermidis as additional Gram-positive bacteria, and we used E. coli as a Gram-negative control.

[2] = system: Staphylococcus aureus (MRSA) ATCC 700698; experiment: microbe, parasite or virus in culture
Excerpt: as §1

[3] = system: Staphylococcus epidermidis ATCC 14990; experiment: microbe, parasite or virus in culture
Excerpt: as §1

[4] = system: Escherichia coli ATCC 10798; experiment: microbe, parasite or virus in culture
Excerpt: as §1

[5] = system: Bacillus subtilis ATCC 6051; experiment: microbe, parasite or virus in culture
Excerpt: as §1

[6] = system: Staphylococcus aureus (MSSA) ATCC 29213; experiment: microbe, parasite or virus in culture; details: ATCC29213|MSSA
Excerpt: as §1

[7] = in the presence of 0.002% polysorbate 80

## CC[C@H](C)[C@H](NC(=O)[C@@H](Cc1ccccc1)NC)C(=O)N[C@@H](CO)C(=O)N[C@H](CCC(N)=O)C(=O)N[C@@H](C(=O)N[C@H](C(=O)N[C@@H](CO)C(=O)N[C@H]1C(=O)N[C@@H](C)C(=O)N[C@@H](CCCCN)C(=O)N[C@@H]([C@@H](C)CC)C(=O)O[C@H]1C)[C@@H](C)CC)[C@@H](C)CC [Lys10–teixobactin]
Human red blood cells
  Effect of 0.002% polysorbate 80 on the hemolytic activity: no effect
[1]; [7]
  MICs (range over the Gram-positive bacteria): 0.25 to 2 µg/mL
[1]; without polysorbate 80
  MICs (range over the Gram-positive bacteria): 2 to 4 µg/mL

## CC[C@H](C)[C@H](NC(=O)[C@@H](Cc1ccccc1)NC)C(=O)N[C@@H](CO)C(=O)N[C@H](CCC(N)=O)C(=O)N[C@@H](C(=O)N[C@H](C(=O)N[C@@H](CO)C(=O)N[C@H]1C(=O)N[C@@H](C)C(=O)N[C@@H](CC(C)C)C(=O)N[C@@H]([C@@H](C)CC)C(=O)O[C@H]1C)[C@@H](C)CC)[C@@H](C)CC [Leu10–teixobactin]
[2]; ATCC 700698
  MIC Staphylococcus aureus (MRSA) ATCC 700698: 2 ^a μg mL^−1
Human red blood cells
  Effect of 0.002% polysorbate 80 on the hemolytic activity: no effect

## melittin [reference compound]
Human red blood cells; with and without 0.002% polysorbate 80, positive control
  Hemolysis at 1.25 μg mL^−1: 26–30%

## CN[C@H](CC(C)C)C(=O)N[C@H]1C(=O)N[C@@H](CC(N)=O)C(=O)N[C@H]2C(=O)N[C@H]3C(=O)N[C@H](C(=O)N[C@H](C(=O)O)c4cc(O)cc(O)c4-c4cc3ccc4O)[C@H](O)c3ccc(c(Cl)c3)Oc3cc2cc(c3O[C@@H]2O[C@H](CO)[C@@H](O)[C@H](O)[C@H]2O[C@H]2C[C@](C)(N)[C@H](O)[C@H](C)O2)Oc2ccc(cc2Cl)[C@H]1O [Vancomycin, vancomycin, reference compound]
[3]; ATCC14990, read-out: MIC Staphylococcus epidermidis ATCC 14990, culture media containing 0% polysorbate 80
  MIC: 1 µg/mL (≈ 0.69 µM)
[3]; ATCC14990, read-out: MIC Staphylococcus epidermidis ATCC 14990, culture media containing 0.002% polysorbate 80
  MIC: 2 µg/mL (≈ 1.38 µM)
[2]; Staphylococcus aureus, ATCC700698|MRSA, read-out: MIC Staphylococcus aureus (MRSA) ATCC 700698
  MIC: 2 µg/mL (≈ 1.38 µM)
[2]; culture media containing 0.002% polysorbate 80
  MIC Staphylococcus aureus (MRSA) ATCC 700698: 2 ^b μg mL^−1
[4]; ATCC10798, read-out: MIC Escherichia coli ATCC 10798, culture media containing 0% polysorbate 80
  MIC: > 32 µg/mL
[4]; ATCC10798, read-out: MIC Escherichia coli ATCC 10798, culture media containing 0.002% polysorbate 80
  MIC: > 8 µg/mL
[5]; ATCC6051, read-out: MIC Bacillus subtilis ATCC 6051, culture media containing 0% polysorbate 80
  MIC: 0.125 to 0.25 µg/mL (≈ 0.0863 to 0.173 µM)
[5]; ATCC6051, read-out: MIC Bacillus subtilis ATCC 6051, culture media containing 0.002% polysorbate 80
  MIC: 0.5 µg/mL (≈ 0.345 µM)
[6]; read-out: MIC Staphylococcus aureus (MSSA) ATCC 29213, culture media containing 0% polysorbate 80
  MIC: 0.5 µg/mL (≈ 0.345 µM)
[6]; read-out: MIC Staphylococcus aureus (MSSA) ATCC 29213, culture media containing 0.002% polysorbate 80
  MIC: 1 µg/mL (≈ 0.69 µM)
Human red blood cells; negative control
  Hemolysis at concentrations up to 100 μg mL^−1: no hemolysis
[1]; [7]
  MICs (range over the Gram-positive bacteria): 0.125 to 2 µg/mL

Reference: paper PMC9667932, “Isobactins: O-acyl isopeptide prodrugs of teixobactin and teixobactin derivatives” (Chemical Science, 2022)
